Test results taken from patent US10455839B2, “Pre-plant biocide uses of aqueous cyanamides” (METBRO DI[…], priority 2015, dated 2019).

Legend:
[1] = system: endo and ecotparasitic nematodes; test: Soil column drench, nematode control (Example 1, FIG. 2); assay type: in vivo; details: 750 ppm; soil screened free of roots; 15, 30 and 60 days after treatment
Method: In situ soil borne pest and disease populations were determined from known commercial locations. These infested soils were commonly of sandy loam or fine sandy loam texture that were screened free of all but the smallest of roots as they were placed into buckets. Buckets were then transported to a single location of deep loamy sand soil where 30″ long by 3″ diameter PVC open-ended pipes had been inserted to a depth of 22″ using a 3″ can auger (FIG. 1). Each soil column was then filled with infested soil to a depth of 22″ using a shovel handle to compress soil density during the soil transfer process.
The surface 8″ of each column remained vacant in order to eventually apply one liter of biocide solution onto each soil column and then determine the amount of time required to fully infiltrate the liter of water. Because infiltration rates varied from 3 hr to 4 days across each different biocide with or without adjuvant each column was used only once. Columns were cleaned and re-inserted to a different nearby location for subsequent tests. As testing proceeded dosage response curves were developed to reveal dosages needed to reach threshold levels for pest impact followed by quantification of the dosage needed to achieve as much as 100% pest kill where possible. […]

[2] = system: Meloidogyne incognita race-3; test: Field Station drench of sandy loam soil infested with root-knot nematode (FIGS. 18-19); assay type: in vivo
Method: Field Station evaluations included sandy loam soil at 10° C. vs 15° C. in adjacent sites. These sites were uniformly infested with Meloidogyne incognita race-3. The first site (10° C.) was drenched with 750 or 1,000 ppm to a depth of 40 cm and planted with carrots 70 DAT. Ten weeks later soil at the second site (15° C.) was drenched with 1,250 or 1,500 ppm and 30 DAT planted with sweet potato slips. Nematode samples were collected at 0-15 and 15-30 cm depths.

F. oxysporum race-4 = test: Field Station drench of sandy loam soil to be planted to cotton, fungal counts (FIGS. 20-21); assay type: in vivo, Fusarium oxysporum; details: 3,000 or 4,500 ppm drenched to 40 cm; sandy loam at 10° C.; counted 28 and 70 DAT
Method: Field Station evaluation in sandy loam soil at 10° C. to be planted to cotton soil was drenched with 3,000 or 4,500 ppm HyCyn to 40 cm depth. F. oxysporum race-4 were identified and counted at 28 DAT (FIG. 20) and 70 DAT (FIG. 21).

[3] = system: cotton or occasional nutgrass; test: Phytotoxicity after drench in cotton field; assay type: in vivo; details: 3,000 or 4,500 ppm; never irrigated field
[4] = system: Young almond trees on NEMAGUARD rootstock; test: Almond replant site soil, potted tree growth (FIGS. 22-23); assay type: in vivo
Source text: Field Station evaluation involved sandy loam soil at an almond replant site drenched uniformly with 1,000 ppm. Surface soil was collected 60 days later and potted from three treatments, water only, 250 ppm Telone EC and 1000 ppm HyCyn. Young almond trees on NEMAGUARD rootstock were planted to each pot and trees maintained for six months.

[5] = system: one-year-old almonds trees; test: Root system soak of one-year-old almond trees (FIGS. 24-25); assay type: in vivo; details: 750 ppm, 24 hr, entire root systems soaked in a static setting
Source text: Field Station evaluation where root systems of one-year-old almonds trees were placed in concentrations of HyCyn. Intact 1-yr-old trees were separated from their planting pots and placed into buckets containing open solutions of 400; 750; 1,000; 1,250; 1,500; or 3,000 ppm HyCyn for 6, 18 or 24 hr. […] The results are depicted in FIGS. 24 and 25.

[6] = system: eight-year-old butternut trees, Juglans cathayensis; test: Drench of eight-year-old butternut trees, tree kill (FIG. 26); assay type: in vivo
Source text: Field Station evaluation of eight-year-old butternut trees, Juglans cathayensis, drenched with 2,000 ppm HyCyn within 400 or 800 L water. Two of four trees receiving 400 L solution were not completely killed but four of four trees receiving 800 L of the same solution were killed (FIG. 26).

P. vulnus = test: Five-day sieve-mist extraction of nematodes from roots and soil after tree drench (FIG. 27); assay type: in vivo, Pratylenchus vulnus; details: 2,000 ppm drench

## N#CN [HyCyn, hydrogen cyanamide]
[1]
  effect on nematode populations in test soil: elimination of endo and ecotparasitic nematodes
[2]; 750 or 1,000 ppm drenched to 40 cm, sandy loam soil at 10° C., carrots
  nematode control: no nematode control
[2]; 1,250 or 1,500 ppm, sandy loam soil at 15° C., sweet potato
  nematode control: did provide nematode control
F. oxysporum race-4
  rate needed to halt F. oxysporum: highest rate was necessary to halt F. oxysporum
[3]
  burning of leaves of cotton or occasional nutgrass: did not cease even five months after treatment
[4]; 1,000 ppm
  root rejection component of the replant problem: provides a remedy for the root rejection component of the replant problem
[4]; 1,000 ppm, compared to soil treated with 250 ppm Telone ec or untreated soil
  tree growth after six months (FIG. 23): improved growth
[4]; soil drenched with 1,000 ppm, collected 60 days later and potted, versus water only
  tree growth within 2 months after planting: improved growth
[4]; soil drenched with 1,000 ppm, compared to the untreated
  plant biomass at the 6th month: plant biomass differences were greater
[5]
  tree survival after root soak: no tree survived or re-initiated growth
[6]; 2,000 ppm within 400 L water
  trees not completely killed: Two of four
[6]; 2,000 ppm within 800 L water
  trees killed: four of four
P. vulnus; beneath the surface 90 cm of treated soil
  kill of soil dwelling nematodes: 99.9%
P. vulnus; root samples, FIG. 27: 30 DAT
  kill of P. vulnus from root samples: kill of all P. vulnus
